Data published in patent US11369609B2, “Small molecule Wnt inhibitor as treatment for dyslipidemia” (Yale University, priority 2019, dated 2022).
“Also recorded” adds a separate entry of the source.

Columns and labels:
Type in all cases: in vivo
canonical Wnt signaling [1] = assay: Renal fibrosis in diabetic GR^ECKO and control littermate mice treated with Wnt inhibitor
Procedure: (§1) All experiments were performed in accordance with the National Institute of Health (NIH) Guidelines for the Care of Laboratory Animals. Mice lacking the endothelial glucocorticoid receptor (GR) (known as GR^ECKO) and those lacking this receptor on the Apo E null background (DKO) were generated as previously described (6). The induction of diabetes in CD-1 mice and C57B/L6 mice was performed according to previously established experimental protocols (38-42). Briefly, diabetes was induced in 10-week-old GR^ECKO mice with five consecutive intraperitoneal (IP) doses of streptozotocin (STZ) 50 mg/kg in 10 mmol/L citrate buffer (pH 4.5). Wnt inhibitor (LGK974) was provided to GR^ECKO and control littermate at 5 mg/kg at a frequency of six doses per week for 8 weeks (43). Etomoxir (20 mg/kg) and c75 (15 mg/kg) were dosed (ip) three times per week for 3 weeks in the GR^ECKO and control littermate. A single IP dose of 200 mg/kg STZ was used to induce diabetes in CD-1 mice. Fenofibrate (100 mg/kg), simvastatin (40 mg/kg), were dosed orally for 4 weeks in diabetic CD-1 mice. All mice were sacrificed after 4 weeks of treatment and tissues and blood were harvested. Urine albumin levels were assayed using a Mouse Albumin ELISA Kit (Exocell, Philadelphia, Pa.).
(§2) A point-counting method was utilized to evaluate the relative area of the mesangial matrix. PAS-stained glomeruli from each mouse were analyzed using a digital microscope screen grid containing 540 (27×20) points. Masson's trichrome-stained images were evaluated by ImageJ software, and the fibrotic areas were estimated.
(§3) Deparaffinized sections were incubated with picrosirius red solution for 1 hour at room temperature. The slides were washed twice with acetic acid solution for 30 seconds per wash. The slides were then dehydrated in absolute alcohol three times, cleared in xylene, and mounted with a synthetic resin. Sirius red staining was analyzed using ImageJ software, and fibrotic areas were quantified.
(§4) Frozen kidney sections (5 μm) were used for immunofluorescence; double positive labeling with CD31/αSMA, CD31/TGFβR1 and E-cadherin/αSMA was measured. Briefly, frozen sections were dried and placed in acetone for 10 min at −30° C. Once the sections were dried, they were washed twice in phosphate-buffered saline (PBS) for 5 min and then blocked in 2% bovine serum albumin/PBS for 30 min at room temperature. Thereafter, the sections were incubated in primary antibody (1:100) for 1 hour and washed in PBS (5 min) three times. Next, the sections were incubated with the secondary antibodies for 30 min, washed with PBS three times (5 min each), and mounted with mounting medium with DAPI (Vector Laboratories, Burlingame, Calif.). The immune-labeled sections were analyzed by fluorescence microscopy. For each mouse, original magnification of ×400 pictures were obtained from six different areas, and quantification was performed.
Frozen sections (5 μm) were used for the detection of EndMT and EMT. Cells undergoing EndMT were detected by double-positive labeling for CD31 and αSMA and/or TGFβR1. Cells undergoing EMT were detected by double-positive labeling for E-cadherin and αSMA. Sections were analyzed and quantified by fluorescence microscopy.
To determine whether Wnt inhibition could mitigate the renal fibrosis observed in diabetic mice lacking endothelial GR, a cohort of animals was treated with the Wnt inhibitor, LGK974. At the age of 8 weeks, control and GR^ECKO mice were injected with STZ 50 mg/kg for five consecutive days. Sixteen weeks after injection, LGK974 was administered by oral gavage for eight additional weeks (FIG. 16A).

canonical Wnt signaling [2] = assay: Renal fibrosis in STZ-induced diabetic CD-1 mice treated with Wnt inhibitor
Procedure: as §1, §2, §3
Paraffin-embedded kidney sections (5 μm thick) were deparaffinized and rehydrated (2 min in xylene, four times; 1 min in 100% ethanol, twice; 1 min in 95% ethanol; 45 s in 70% ethanol; and 1 min in distilled water), and the antigen was retrieved in a 10 mM citrate buffer pH 6 at 98° C. for 60 min. To block the endogenous peroxidase, all sections were incubated in 0.3% hydrogen peroxide for 10 min. The immunohistochemistry was performed using a Vectastain ABC Kit (Vector Laboratories, Burlingame, Calif.). Mouse anti-[…] antibody (1:100) and CPT1a (Abnova; H00001374-DO1P; 1:100) antibody was used. In the negative controls, the primary antibody was omitted and replaced with the blocking solution.
as §4
To determine whether inhibition of the Wnt signaling pathway could ameliorate the observed fibrosis, LGK974, a small molecule inhibitor of all secreted Wnts (43), was utilized. FIGS. 21A-21B depict the schematic diagram showing the experimental protocol for LGK974 treatment in diabetic CD-1 and UUO mice.

kidney endothelial cells = assay: Fatty acid uptake in isolated kidney endothelial cells; details: diabetic mice, radiolabeled [14C]palmitate uptake
Procedure: Endothelial cells from the kidneys of non-diabetic and diabetic mice were isolated using a standardized kit (Miltenyl Biotech, USA) by following the manufacturer's instructions. Briefly, kidneys were isolated and minced into small pieces. Using a series of enzymatic reactions by treating the tissue with trypsin and Collagenase type I solution, a single cell suspension was created. The pellet was dissolved with CD31 magnetic beads and the CD31-labelled cells were separated on a magnetic separator. The cells were further purified on a column. Cell number was counted by hemocytometer and cells were plated on 0.1% gelatin coated Petri dishes.
Cultured isolated kidney endothelial cells were incubated with medium containing 2 μCi [^14C]palmitate. [^14C]-palmitate uptake was measured by liquid scintillation counting.
It is increasingly recognized that defects in central metabolism contribute to kidney fibrosis (69, 76). Defective FA metabolism in EC leads to EndMT events (77). To investigate whether FA metabolism was deranged in the model, radiolabeled [^14C]palmitate uptake experiments were performed in isolated EC from mouse kidneys. […] FA oxidation (FAO) was also assessed by measuring the ^14CO2 release from radiolabeled [^14C]palmitate in cultured EC isolated from kidneys. […]

[3] = diabetic control vs diabetic GR^ECKO mice
[4] = diabetic CD-1 mice, LGK974 5 mg/kg

**Q.** Which results are given for `Cc1cc(-c2ncc(CC(=O)Nc3ccc(-c4cnccn4)cn3)cc2C)ccn1` [LGK974]?
**A.** effect on Wnt signaling, fibrogenic phenotype and endothelial GR level in GR^ECKO (canonical Wnt signaling [1]; GR^ECKO vs mouse model of diabetic kidney disease): less evident; body weight (canonical Wnt signaling [1]; at sacrifice, among the groups, LGK974 oral gavage 8 weeks): no differences; level of EMT (E-cadherin/αSMA co-positive cells) (canonical Wnt signaling [1]; control and diabetic GR^ECKO mice): significantly reduced; renal fibrosis (canonical Wnt signaling [1]; diabetic GR^ECKO and DKO mice (legend of FIG. 16)): partially abrogates the renal fibrosis; kidney weight (canonical Wnt signaling [1]; diabetic GR^ECKO and diabetic control mice): significant reduction; EndMT (CD31/αSMA co-positive cells) (canonical Wnt signaling [1]; diabetic GR^ECKO mice): less pronounced; relative area of fibrosis (canonical Wnt signaling [1]; diabetic GR^ECKO mice): less pronounced, though still significant; relative collagen deposition (canonical Wnt signaling [1]; diabetic GR^ECKO mice): less pronounced, though still significant; tubular damage (canonical Wnt signaling [1]; diabetic GR^ECKO mice): less pronounced, though still significant; EndMT (CD31/αSMA co-positive cells) (canonical Wnt signaling [1]; diabetic control mice): significantly suppressed; relative area of fibrosis (canonical Wnt signaling [1]; diabetic control mice): clearly improved; relative collagen deposition (canonical Wnt signaling [1]; diabetic control mice): clearly improved; tubular damage (canonical Wnt signaling [1]; diabetic control mice): clearly improved; staining of fibronectin (canonical Wnt signaling [1]; [3]): A similar pattern was observed; staining of β-catenin (canonical Wnt signaling [1]; [3]): A similar pattern was observed; ECM deposition (canonical Wnt signaling [2]; [4]): greatly diminished; collagen accumulation (canonical Wnt signaling [2]; [4]): greatly diminished; glomerulosclerosis (canonical Wnt signaling [2]; [4]): greatly diminished; relative area fibrosis (canonical Wnt signaling [2]; [4]): greatly diminished; endothelial GR level (canonical Wnt signaling [2]; diabetic mice, kidney CD31-positive cells): significantly restored; level of β-catenin (canonical Wnt signaling [2]; diabetic mice, kidney immunohistochemistry): suppressed; canonical Wnt signaling (canonical Wnt signaling [2]; mouse model of diabetic kidney disease): clearly suppressed; fibrogenic phenotype (canonical Wnt signaling [2]; mouse model of diabetic kidney disease (b57 legend also UUO mice)): substantially improved; also recorded: abolishes the fibrogenic phenotype; FA uptake in isolated kidney EC (kidney endothelial cells): suppressed FA uptake
